Assay: xn = mol fraction of the nth substance listed
Settings: Liquid, Vibrating tube method

COC(=O)OC [dimethyl carbonate] + CCCO
mass density [kg/m3]
Settings | 100 kPa | 5000 kPa | 10000 kPa | 15000 kPa | 20000 kPa | 25000 kPa | 30000 kPa | 35000 kPa | 40000 kPa
303.15 K, x1 = 0.0273 | – | – | – | – | – | – | – | 827.45 | 830.37
303.15 K, x1 = 0.0506 | – | – | – | – | – | – | – | 834.14 | 837.11
303.15 K, x1 = 0.0755 | – | – | – | – | – | – | – | 841.27 | 844.3
303.15 K, x1 = 0.1007 | – | – | – | – | – | – | – | 848.4 | 851.44
303.15 K, x1 = 0.1495 | – | – | – | – | – | – | – | 862.14 | 865.25
303.15 K, x1 = 0.2003 | – | – | – | – | – | – | – | 876.43 | 879.56
303.15 K, x1 = 0.2529 | – | – | – | – | – | – | – | 891.09 | 894.28
303.15 K, x1 = 0.2993 | – | – | – | – | – | – | – | 903.84 | 907.1
303.15 K, x1 = 0.3497 | – | – | – | – | – | – | – | 917.64 | 920.92
303.15 K, x1 = 0.401 | – | – | – | – | – | – | – | 931.51 | 934.85
303.15 K, x1 = 0.4509 | – | – | – | – | – | – | – | 944.84 | 948.26
303.15 K, x1 = 0.5002 | – | – | – | – | – | – | – | 958 | 961.43
303.15 K, x1 = 0.5498 | – | – | – | – | – | – | – | 971.12 | 974.61
303.15 K, x1 = 0.5996 | – | – | – | – | – | – | – | 984.2 | 987.76
303.15 K, x1 = 0.6499 | – | – | – | – | – | – | – | 997.34 | 1000.93
303.15 K, x1 = 0.7006 | – | – | – | – | – | – | – | 1010.45 | 1014.1
303.15 K, x1 = 0.7471 | – | – | – | – | – | – | – | 1022.39 | 1026.05
303.15 K, x1 = 0.7989 | – | – | – | – | – | – | – | 1035.67 | 1039.35
303.15 K, x1 = 0.8491 | – | – | – | – | – | – | 1044.84 | 1048.52 | 1052.22
303.15 K, x1 = 0.8993 | – | – | – | – | – | – | 1057.6 | 1061.28 | 1065.05
303.15 K, x1 = 0.9249 | – | – | – | – | – | – | 1064.01 | 1067.75 | 1071.52
303.15 K, x1 = 0.9489 | – | – | – | – | – | – | 1070.02 | 1073.76 | 1077.54
303.15 K, x1 = 0.9743 | – | – | – | – | – | – | 1076.38 | 1080.13 | 1083.97
303.15 K, x1 = 1 | – | – | – | – | – | – | 1082.9 | 1086.6 | 1090.4
308.15 K, x1 = 0.0273 | 798.56 | 802.69 | 806.56 | 810.18 | 813.81 | 817.21 | 820.58 | 823.72 | 826.71
308.15 K, x1 = 0.0506 | 804.88 | 809.05 | 812.98 | 816.65 | 820.28 | 823.74 | 827.15 | 830.34 | 833.34
308.15 K, x1 = 0.0755 | 811.69 | 815.86 | 819.84 | 823.57 | 827.25 | 830.71 | 834.12 | 837.36 | 840.41
308.15 K, x1 = 0.1007 | 818.55 | 822.77 | 826.76 | 830.48 | 834.21 | 837.72 | 841.19 | 844.43 | 847.53
308.15 K, x1 = 0.1495 | 831.9 | 836.17 | 840.21 | 844.04 | 847.82 | 851.38 | 854.86 | 858.14 | 861.25
308.15 K, x1 = 0.2003 | 845.6 | 849.97 | 854.07 | 857.95 | 861.78 | 865.4 | 868.98 | 872.31 | 875.47
308.15 K, x1 = 0.2529 | 859.71 | 864.12 | 868.28 | 872.21 | 876.1 | 879.78 | 883.42 | 886.79 | 890
308.15 K, x1 = 0.2993 | 872.12 | 876.53 | 880.75 | 884.73 | 888.67 | 892.4 | 896.05 | 899.42 | 902.69
308.15 K, x1 = 0.3497 | 885.38 | 889.84 | 894.11 | 898.2 | 902.19 | 905.97 | 909.68 | 913.1 | 916.37
308.15 K, x1 = 0.401 | 898.75 | 903.3 | 907.64 | 911.77 | 915.81 | 919.66 | 923.42 | 926.84 | 930.17
308.15 K, x1 = 0.4509 | 911.74 | 916.34 | 920.73 | 924.87 | 928.97 | 932.87 | 936.64 | 940.1 | 943.48
308.15 K, x1 = 0.5002 | 924.45 | 929.1 | 933.55 | 937.74 | 941.84 | 945.79 | 949.62 | 953.13 | 956.52
308.15 K, x1 = 0.5498 | 937.17 | 941.82 | 946.33 | 950.57 | 954.72 | 958.68 | 962.57 | 966.12 | 969.52
308.15 K, x1 = 0.5996 | 949.8 | 954.5 | 959.02 | 963.36 | 967.52 | 971.54 | 975.48 | 979.03 | 982.49
308.15 K, x1 = 0.6499 | 962.55 | 967.29 | 971.88 | 976.22 | 980.43 | 984.5 | 988.45 | 992.05 | 995.51
308.15 K, x1 = 0.7006 | 975.36 | 980.15 | 984.79 | 989.19 | 993.45 | 997.53 | 1001.49 | 1005.08 | 1008.6
308.15 K, x1 = 0.7471 | 986.95 | 991.79 | 996.49 | 1000.94 | 1005.2 | 1009.34 | 1013.35 | 1016.99 | 1020.52
308.15 K, x1 = 0.7989 | 999.88 | 1004.72 | 1009.48 | 1013.98 | 1018.3 | 1022.49 | 1026.51 | 1030.15 | 1033.73
308.15 K, x1 = 0.8491 | 1012.38 | 1017.27 | 1022.04 | 1026.54 | 1030.91 | 1035.16 | 1039.19 | 1042.88 | 1046.46
308.15 K, x1 = 0.8993 | 1024.9 | 1029.78 | 1034.61 | 1039.16 | 1043.54 | 1047.79 | 1051.88 | 1055.57 | 1059.15
308.15 K, x1 = 0.9249 | 1031.23 | 1036.11 | 1040.95 | 1045.55 | 1049.98 | 1054.24 | 1058.33 | 1062.01 | 1065.61
308.15 K, x1 = 0.9489 | 1037.12 | 1042.05 | 1046.89 | 1051.5 | 1055.93 | 1060.19 | 1064.28 | 1068.02 | 1071.61
308.15 K, x1 = 0.9743 | 1043.46 | 1048.4 | 1053.24 | 1057.85 | 1062.28 | 1066.54 | 1070.69 | 1074.37 | 1078.02
308.15 K, x1 = 1 | 1049.91 | 1054.84 | 1059.69 | 1064.3 | 1068.73 | 1073 | 1077.1 | 1080.78 | 1084.38

From the NIST ThermoML archive (doi:10.1016/j.jct.2019.02.011)
